Experimental data reported in patent US20020183518A1, “Modulators of proteins with phosphotyrosine recognition units” (ONTOGEN CORPORATION, priority 1995, published 2002).

Experiments:
Format in all cases: biochemical
PTP-1B = target: T1, PTP-1B (Homo sapiens, UniProt P18031); assay: In vitro PTPase inhibition assay (pNPP, colorimetric), PTP-1B; settings: Table 8; 1 μM compound
T1 construct: known to encode a 321 amino acid fragment containing the PTP-1B catalytic domain and having PTPase activity; made in house; host or cells: E. coli DH5α, plasmid pGEX-3X-PTP-1B
T1 sequence (P18031 3-277 limits assumed): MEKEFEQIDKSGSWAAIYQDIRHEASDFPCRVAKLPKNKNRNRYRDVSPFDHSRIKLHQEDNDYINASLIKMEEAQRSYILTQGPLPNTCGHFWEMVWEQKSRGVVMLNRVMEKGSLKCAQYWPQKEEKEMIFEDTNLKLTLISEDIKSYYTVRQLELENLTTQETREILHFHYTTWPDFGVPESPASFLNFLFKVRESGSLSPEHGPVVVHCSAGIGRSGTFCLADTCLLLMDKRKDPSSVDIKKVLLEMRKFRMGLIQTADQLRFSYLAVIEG
Protocol: PTP-1B enzymatic activity of samples was assayed in microtiter plates as follows. The protein concentration of the PTP-1B enzyme preparation was determined using the Bio-Rad Protein Assay kit (Bio-Rad, Hercules Calif.). […] Reactions were mixed gently and incubated at 37° C. for 60 minutes. Enzymatic cleavage of phosphate from pNPP (a tyrosine phosphate analog) is marked by a colorimetric change in this substrate. See, e.g., Imbert et al., Biochem J., 297:163-173 (1994); Ghosh and Miller, Biochem. Biophys. Res. […] Zanke et al., Eur. J. […] To determine the enzymatic activity, absorbance readings of the reactions were measured at 405 nm using a Molecular Devices Thermomax Plate Reader (Menlo Park Calif.). […] Purified phosphatase was added to the reaction mixtures to begin the reactions; the reactions were incubated at 37° C. for 60 min. […] (for PTP-1C and PTPα assays), stopped, and colorimetrically analyzed as described above. […] First, absorbance readings from the negative control reactions were treated as a baseline and subtracted from the absorbance readings of the experimental reactions. Then, for each reaction, a percent inhibition was calculated using the following formula: […] For each inhibitor compound tested, an IC50 concentration was calculated from a best-fit computer analysis of the calculated percent inhibition for the various dilutions of the compound. PTP-1B enzymatic activity of samples was assayed in microtiter plates as follows. The protein concentration of the PTP-1B enzyme preparation was determined using the Bio-Rad Protein Assay kit (Bio-Rad, Hercules Calif.). […] Reactions were mixed gently and incubated at 37° C. for 60 minutes. Enzymatic cleavage of phosphate from pNPP (a tyrosine phosphate analog) is marked by a colorimetric change in this substrate. See, e.g., Imbert et al., Biochem J., 297:163-173 (1994); Ghosh and Miller, Biochem. Biophys. Res. […] Zanke et al., Eur. […] To determine the enzymatic activity, absorbance readings of the reactions were measured at 405 nm using a Molecular Devices Thermomax Plate Reader (Menlo Park Calif.). […] Purified phosphatase was added to the reaction mixtures to begin the reactions; the reactions were incubated at 37° C. for 60 min. […] (for PTP-1C and PTPα assays), stopped, and calorimetrically analyzed as described above. […] First, absorbance readings from the negative control reactions were treated as a baseline and subtracted from the absorbance readings of the experimental reactions. Then, for each reaction, a percent inhibition was calculated using the following formula: […] For each inhibitor compound tested, an IC50 concentration was calculated from a best-fit computer analysis of the calculated percent inhibition for the various dilutions of the compound.

PTPα = PTPα (Homo sapiens, UniProt P18433); assay: In vitro PTPase inhibition assay (pNPP, colorimetric), PTPα; settings: Table 8; 100 μM compound
Chain of PTPα (P18433 20-802): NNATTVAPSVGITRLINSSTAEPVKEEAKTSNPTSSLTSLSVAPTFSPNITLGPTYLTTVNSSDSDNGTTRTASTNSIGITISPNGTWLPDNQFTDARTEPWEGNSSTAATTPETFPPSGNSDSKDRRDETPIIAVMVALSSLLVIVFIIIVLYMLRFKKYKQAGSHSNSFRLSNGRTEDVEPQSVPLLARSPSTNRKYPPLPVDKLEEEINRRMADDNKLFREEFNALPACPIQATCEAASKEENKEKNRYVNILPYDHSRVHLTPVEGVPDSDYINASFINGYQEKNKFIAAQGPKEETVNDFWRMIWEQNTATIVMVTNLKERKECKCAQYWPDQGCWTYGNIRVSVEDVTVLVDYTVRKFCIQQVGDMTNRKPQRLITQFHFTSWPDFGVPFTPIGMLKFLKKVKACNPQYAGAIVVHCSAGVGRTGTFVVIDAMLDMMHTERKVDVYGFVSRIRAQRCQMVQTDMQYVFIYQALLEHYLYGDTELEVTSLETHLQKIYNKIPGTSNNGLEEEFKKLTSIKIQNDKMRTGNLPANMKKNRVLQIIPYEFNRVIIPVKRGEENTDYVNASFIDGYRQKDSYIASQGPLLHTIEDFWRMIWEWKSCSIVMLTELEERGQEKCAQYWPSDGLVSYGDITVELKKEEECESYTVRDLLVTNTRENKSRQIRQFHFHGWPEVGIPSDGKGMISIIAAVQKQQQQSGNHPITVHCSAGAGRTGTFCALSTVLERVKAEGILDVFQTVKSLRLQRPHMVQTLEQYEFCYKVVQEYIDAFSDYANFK
Protocol: (§1) The ability of the compounds of the present invention, such as the cinnamic 4 acid derivative compounds of Example 2, to inhibit the PTPase activity of PTP-1B, CD45, PTP-1C, and PTPα was determined using modifications of the PTP-1B and CD45 activity assays described in Examples 3 and 4.
(§2) First, 0.001 mmol of the cinnamic acid derivative (or other PTPase inhibitor compound) was dissolved in 100 ul of DMSO to create a 10 mM stock solution. The 10 mM stock solution was used to add varying concentrations (100 uM, 133 uM, 10 uM, 3 uM, 1 uM, 0.3 uM, 0.1 uM, 0.03 uM, 0.01 uM or 0.003 uM) of the inhibitor compound to a series of otherwise identical PTPase activity assay reactions (100 ul final volume in microtiter wells). Thus, each 100 ul reaction contained 10 ul PTPase enzyme stock solution (final phosphatase concentration of approximately 20 ng/well), 70 ul activity assay buffer, 10 ul pNPP stock solution (final pNPP concentration of 0.9 mM for PTP-1B assay, 0.93 mM for CD45 assay, 0.5 mM for PTPα assay, and 8 mM for PTP-1C assay), and 10 ul of the diluted inhibitor compound in DMSO. Assay buffers contained: for CD45 and PTP-1B assays, 100 mM sodium acetate at pH 6.0, 1 mM EDTA, 0.1% Triton X-100, and 15 mM bME; for PTP-1C assays, 100 mM sodium acetate at pH 5.5, 0.1% BSA, and 15 mM bME; for PTPα assays, 100 mM sodium acetate at pH 5.25, 0.1% BSA, and 15 mM bME. Purified phosphatase was added to the reaction mixtures to begin the reactions; the reactions were incubated at 37° C. for 60 min. (for PTP-1B and CD45 assays) or at 27° C. for 60 min. (for PTP-1C and PTPα assays), stopped, and colorimetrically analyzed as described above. As positive and negative controls, reactions were performed containing 10 ul DMSO with no inhibitor compound or containing the known PTPase inhibitors vanadate (final concentration 0.5 mM; for PTP-1B and CD45 assays) or ammonium molybdate (final concentration 1 mM; for PTP-1C and PTPα assays) substituted for the inhibitor compound of the invention.
(§3) The concentration of inhibitor compound required to inhibit 50% of the PTPase activity (IC50) was determined as follows. First, absorbance readings from the negative control reactions were treated as a baseline and subtracted from the absorbance readings of the experimental reactions. Then, for each reaction, a percent inhibition was calculated using the following formula: […]
(§4) The ability of the compounds of the present invention, such as the cinnamic acid derivative compounds of Example 2, to inhibit the PTPase activity of PTP-1B, CD45, PTP-1C, and PTPα was determined using modifications of the PTP-1B and CD45 activity assays described in Examples 3 and 4.
as §2, with “uM, 33” for “uM, 133”, “EDTA, 0. 1%” for “EDTA, 0.1%”, “at 27 C” for “at 27° C.”, “min.” for “min. (for PTP-1C and PTPα assays), stopped, and colorimetrically analyzed as described above. As positive and negative controls, reactions were performed containing 10 ul DMSO with no inhibitor compound or containing the known PTPase inhibitors vanadate (final concentration 0.5 mM; for PTP-1B and CD45 assays) or ammonium molybdate (final concentration 1 mM; for PTP-1C and PTPα assays) substituted for the inhibitor compound of the invention.”

PTP-1C = PTP-1C (Homo sapiens, UniProt P29350); assay: In vitro PTPase inhibition assay (pNPP, colorimetric), PTP-1C; settings: Table 8; 100 μM compound
Chain of PTP-1C (P29350 whole entry, species assumed): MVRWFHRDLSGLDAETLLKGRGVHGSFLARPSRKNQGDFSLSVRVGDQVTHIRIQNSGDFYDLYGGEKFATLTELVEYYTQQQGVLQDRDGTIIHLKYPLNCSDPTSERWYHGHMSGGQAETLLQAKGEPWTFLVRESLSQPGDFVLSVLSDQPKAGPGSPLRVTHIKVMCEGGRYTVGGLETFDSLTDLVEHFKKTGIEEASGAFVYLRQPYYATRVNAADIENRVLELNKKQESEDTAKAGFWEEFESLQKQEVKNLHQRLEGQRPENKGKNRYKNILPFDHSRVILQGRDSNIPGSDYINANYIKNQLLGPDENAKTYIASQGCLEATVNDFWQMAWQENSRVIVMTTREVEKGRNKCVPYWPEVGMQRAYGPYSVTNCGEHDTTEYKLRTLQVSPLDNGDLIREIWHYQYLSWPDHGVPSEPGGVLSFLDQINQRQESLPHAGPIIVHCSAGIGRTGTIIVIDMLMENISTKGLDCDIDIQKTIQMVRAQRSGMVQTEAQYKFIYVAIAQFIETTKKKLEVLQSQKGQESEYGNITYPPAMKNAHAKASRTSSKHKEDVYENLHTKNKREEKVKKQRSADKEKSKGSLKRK
Protocol: as §1, §2, §3, §4
as §2, with “uM, 33” for “uM, 133”, “EDTA, 0. 1%” for “EDTA, 0.1%”, “at 27 C” for “at 27° C.”, “min.” for “min. (for PTP-1C and PTPα assays), stopped, and colorimetrically analyzed as described above. As positive and negative controls, reactions were performed containing 10 ul DMSO with no inhibitor compound or containing the known PTPase inhibitors vanadate (final concentration 0.5 mM; for PTP-1B and CD45 assays) or ammonium molybdate (final concentration 1 mM; for PTP-1C and PTPα assays) substituted for the inhibitor compound of the invention.”

Compound | % inhibition of PTP1B at 1 μM (PTP-1B) [%] | % inhibition of PTPα at 100 μM (PTPα) [%] | % inhibition of PTP1C at 100 μM (PTP-1C) [%]
O=C(O)/C=C/c1ccc(C(=O)OC(C(=O)NCCC(=O)O)c2ccc(Br)cc2)cc1 (racemic) [Compound 36] | 52 | 0 | 42
O=C(O)/C=C/c1ccc(C(=O)OC(C(=O)NCCCCCC(=O)O)c2ccc(Br)cc2)cc1 (racemic) [Compound 37] | 85 | 63 | 59
CCCCCCC(OC(=O)c1ccc(/C=C/C(=O)O)cc1)C(=O)NCCC(=O)O (racemic) [Compound 38] | 93 | 71 | 63
CCCCCCC(OC(=O)c1ccc(/C=C/C(=O)O)cc1)C(=O)NCCCCCC(=O)O (racemic) [Compound 39] | 82 | 47 | 53
CCCCCCCCCC(OC(=O)c1ccc(/C=C/C(=O)O)cc1)C(=O)NCCC(=O)O (racemic) [Compound 40] | 88 | 82 | 62
CCCCCCCCCC(OC(=O)c1ccc(/C=C/C(=O)O)cc1)C(=O)NCCCCCC(=O)O (racemic) [Compound 41] | 39 | 20 | 17
COc1ccc(C(=O)OC(C(=O)NCCC(=O)O)c2ccc(/C=C/C(=O)O)cc2)cc1 (racemic) [Compound 42] | 84 | 92 | 88
COc1ccc(C(=O)OC(C(=O)NCCCCCC(=O)O)c2ccc(/C=C/C(=O)O)cc2)cc1 (racemic) [Compound 43] | 76 | 82 | 79
O=C(O)/C=C/c1ccc(C(OC(=O)c2ccc([N+](=O)[O-])cc2)C(=O)NCCC(=O)O)cc1 (racemic) [Compound 44] | 79 | 87 | 86
O=C(O)/C=C/c1ccc(C(OC(=O)/C=C/c2ccc(F)cc2)C(=O)NCCC(=O)O)cc1 (racemic) [Compound 45] | 85 | 85 | 84
O=C(O)/C=C/c1ccc(C(OC(=O)/C=C/c2ccc(F)cc2)C(=O)NCCCCCC(=O)O)cc1 (racemic) [Compound 46] | 75 | 73 | 61
CCCC(CCC)C(=O)OC(C(=O)NCCC(=O)O)c1ccc(/C=C/C(=O)O)cc1 (racemic) [Compound 47] | 68 | 48 | 63
CCCC(CCC)C(=O)OC(C(=O)NCCCCCC(=O)O)c1ccc(/C=C/C(=O)O)cc1 (racemic) [Compound 48] | 69 | 3 | 33
O=C(O)/C=C/c1ccc(C(OC(=O)CCC2CCCC2)C(=O)NCCC(=O)O)cc1 (racemic) [Compound 49] | 37 | 0 | 35
O=C(O)/C=C/c1ccc(C(OC(=O)CCC2CCCC2)C(=O)NCCCCCC(=O)O)cc1 (racemic) [Compound 50] | 50 | 37 | 25
